According to patent US20220340547A1, “INDOLE DERIVATIVE-CONTAINING INHIBITOR, PREPARATION METHOD THEREFOR AND APPLICATION THEREOF” (Shanghi Hansoh Biosoh Biomedical Co., Ltd., priority 2019, published 2022):

Assays:
[1] = target: Ba/F3 EGFR-D770-N771ins_SVD (Homo sapiens, UniProt P00533, DUP768-770, cells depend on it); assay: Proliferation of Ba/F3 EGFR mutant cell line (CellTiter-Glo); format: cell-based, mouse; conditions: 72 h to 144 h, read-out: Ba/F3 EGFR-D770-N771ins_SVD IC50
[2] = Plasma stability test, mouse plasma; format: in vitro ADME; conditions: 37° C.
Description: (§1) Test Example 5. Plasma Stability Test
(§2) The objective of this experiment is to determine the stability of the compounds of the examples in the plasma of mouse, rat and human.
(§3) 1. Plasma preparation: Animal or human whole blood was collected, placed into a test tube containing anticoagulant, and centrifuged at 3500 rpm for 10 min. The light yellow plasma in the upper layer was collected.
(§4) 2. 1 mM test compound (m/M/V=C), the compound was weighed and formulated into stock solution with DMSO.
(§5) 1. 398 μL of plasma and 2 μL of 1 mM compound (test compound) were added successively to a 96-well plate, and incubated at 37° C.
(§6) 2. 50 μL of solution was taken out at 0, 15, 30, 60, 120 min, to which 400 μL of methanol stop solution containing internal standard was added.
(§7) 3. The solution was centrifuged (3220 g, 30 min). 50 μL of supernatant was taken out, to which 50 μL of DDH2O was added to dilute. The resulting solution was injected into a LC-MS/MS.

[3] = Plasma stability test, rat plasma; format: in vitro ADME; conditions: 37° C.
Description: as §1, §2, §3, §4, §5, §6, §7

A431 cell line = assay: Proliferation of A431 cell line (CellTiter-Glo); format: cell-based; conditions: Homo sapiens, A-431, 72 h
[4] = Plasma stability test, human plasma; format: in vitro ADME; conditions: 37° C.
Description: as §1, §2, §3, §4, §5, §6, §7

[5] = tested on: Ba/F3 EGFR-D770-N771ins_SVD xenograft; assay: In vivo pharmacodynamic study in mouse pro-B cell Ba/F3 EGFR-D770-N771ins_SVD xenograft model; conditions: 40 mg/kg, oral, 1 time/day, 14 days; for Tumor volume (mm3, Mean ± SD) Day 14: BALB/cA nude mice
Description: In Vivo Pharmacodynamic Study of the Compound of the Present Invention in the Mouse Pro-B Cell Ba/F3 EGFR-D770-N771ins_SVD Xenograft Model
The in vivo efficacy of the compound in the mouse pro-B cell Ba/F3 EGFR-D770-N771ins_SVD xenograft model was evaluated.
BALB/cA nude mice (6-8 weeks old, female) were purchased from Shanghai Sino-British SIPPR/BK Lab Animal Co., Ltd.
a. […] The resuscitated cells were placed in the cell culture flasks (cell type, date, the name of the culturing person and the like were marked on the flask wall), and incubated in a CO2 incubator (the incubator temperature was 37° C., and the CO2 concentration was 5%).
b. The cells were passaged every three days. After passage, the cells were further incubated in the CO2 incubator. The process was repeated until the number of cells met the requirements of the in vivo pharmacodynamic study.
c. The cultured cells were collected and counted by the automatic cell counter. According to the counting results, the cells were resuspended in PBS to prepare a cell suspension (density: 2×10^7 cells/mL), which was placed in an ice box for later use.
d. The test nude mice were inoculated in turn (0.1 mL of cell suspension per mouse).
a. Tumor was measured on Day 8 to Day 14 after inoculation depending on the tumor growth, and tumor size was calculated.
Tumor volume calculation: tumor volume (mm^3)=length (mm)×width (mm)×width (mm)/2
b. According to the body weight and tumor size of the tumor-bearing mouse, the mice were randomly grouped (5 mice per group).
d. The tumor was measured and the mouse was weighed twice a week after the test drug was administrated.
Calculation of the Tumor Growth Inhibition Rate TGI (%) of the Compound: […]

EGFR D770_N771insNPG = EGFR D770_N771insNPG (Homo sapiens, UniProt P00533, INS770NPG); assay: TR-FRET inhibition of kinase activity of EGFR exon 20 insertion mutation; format: biochemical
Chain of EGFR D770_N771insNPG (P00533 with tags, fused parts or gaps INS770NPG limits assumed): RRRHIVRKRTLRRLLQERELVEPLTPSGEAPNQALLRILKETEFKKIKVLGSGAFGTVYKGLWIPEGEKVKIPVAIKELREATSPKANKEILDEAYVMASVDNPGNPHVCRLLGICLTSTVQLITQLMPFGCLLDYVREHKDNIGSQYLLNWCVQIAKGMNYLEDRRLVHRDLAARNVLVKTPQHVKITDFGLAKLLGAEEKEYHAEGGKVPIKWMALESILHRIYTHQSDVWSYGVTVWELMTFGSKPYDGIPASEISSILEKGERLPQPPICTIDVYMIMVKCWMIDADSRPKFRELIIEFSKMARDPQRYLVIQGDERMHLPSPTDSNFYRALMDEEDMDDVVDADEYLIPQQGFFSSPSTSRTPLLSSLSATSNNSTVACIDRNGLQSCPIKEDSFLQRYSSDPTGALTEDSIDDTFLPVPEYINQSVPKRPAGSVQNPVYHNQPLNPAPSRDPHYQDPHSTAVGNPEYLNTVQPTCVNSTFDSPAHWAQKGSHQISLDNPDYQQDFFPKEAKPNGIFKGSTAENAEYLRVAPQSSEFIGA

Chain of Ba/F3 EGFR-D770-N771ins_SVD (P00533 with tags, fused parts or gaps DUP768-770): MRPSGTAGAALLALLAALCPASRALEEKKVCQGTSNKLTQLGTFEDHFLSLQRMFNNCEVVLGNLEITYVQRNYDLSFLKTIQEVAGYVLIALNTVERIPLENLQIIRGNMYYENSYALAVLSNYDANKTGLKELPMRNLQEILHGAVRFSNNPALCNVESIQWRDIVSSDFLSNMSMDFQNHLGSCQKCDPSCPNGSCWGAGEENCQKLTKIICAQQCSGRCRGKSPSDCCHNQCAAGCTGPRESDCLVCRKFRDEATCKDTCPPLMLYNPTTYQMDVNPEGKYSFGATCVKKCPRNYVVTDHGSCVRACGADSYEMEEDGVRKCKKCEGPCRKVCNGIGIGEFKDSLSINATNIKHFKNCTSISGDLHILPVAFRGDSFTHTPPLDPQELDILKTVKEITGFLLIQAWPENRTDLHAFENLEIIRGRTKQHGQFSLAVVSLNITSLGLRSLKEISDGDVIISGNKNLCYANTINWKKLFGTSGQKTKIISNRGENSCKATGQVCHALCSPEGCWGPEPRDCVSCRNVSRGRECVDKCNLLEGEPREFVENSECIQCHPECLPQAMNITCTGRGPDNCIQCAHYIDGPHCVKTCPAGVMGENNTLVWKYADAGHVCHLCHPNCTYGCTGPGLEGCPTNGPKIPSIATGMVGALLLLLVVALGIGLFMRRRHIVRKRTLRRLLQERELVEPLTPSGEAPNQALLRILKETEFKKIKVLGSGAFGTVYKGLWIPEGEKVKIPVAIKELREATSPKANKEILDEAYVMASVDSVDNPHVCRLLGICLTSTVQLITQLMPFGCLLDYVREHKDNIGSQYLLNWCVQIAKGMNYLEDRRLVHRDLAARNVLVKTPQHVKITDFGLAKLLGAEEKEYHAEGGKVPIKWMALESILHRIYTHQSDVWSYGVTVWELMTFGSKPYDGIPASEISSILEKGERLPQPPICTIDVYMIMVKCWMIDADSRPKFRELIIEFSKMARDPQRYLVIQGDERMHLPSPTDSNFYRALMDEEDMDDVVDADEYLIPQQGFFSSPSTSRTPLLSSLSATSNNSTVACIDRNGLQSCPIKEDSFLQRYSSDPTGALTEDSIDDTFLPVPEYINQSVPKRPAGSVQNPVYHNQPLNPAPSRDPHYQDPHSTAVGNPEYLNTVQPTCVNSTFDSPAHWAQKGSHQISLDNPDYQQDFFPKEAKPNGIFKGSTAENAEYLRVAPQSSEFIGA

SMILES | GI50 [1] [nM] | IC50 (A431 cell line) [nM] | T/C (%) Day 14 [5] [%] | TGI (%) Day 14 [5] [%] | Tumor volume (mm3, Mean ± SD) Day 14 [5] [mm3] | IC50 (EGFR D770_N771insNPG) [nM] | other results
C=CC(=O)Nc1cc(Nc2ncc(C#N)c(-c3cn(C4CC4)c4ccccc34)n2)c(OC)cc1N(C)CCN(C)C [Example 67, N-(5-((5-Cyano-4-(1-cyclopropyl-1H-indol-3-yl)pyrimidin-2-yl)amino)-2-((2-(dimethylamino)ethyl)(methyl)amino)-4-methoxyphenyl)acrylamide] | 10.4 | 94.5 | 10.94 | 89.06 | 212 ± 44 | 0.14 | half-life at 5 µM [2]: 39.9 min; Residual rate (%) 0 min ([2]; 0 min): 100.00%; Residual rate (%) 15 min ([2]; 15 min): 88.69%; Residual rate (%) 30 min ([2]; 30 min): 69.92%; Residual rate (%) 60 min ([2]; 60 min): 36.29%; Residual rate (%) 120 min ([2]; 120 min): 9.06%; half-life at 5 µM [3]: 74 min; Residual rate (%) 0 min ([3]; 0 min): 100.00%; Residual rate (%) 15 min ([3]; 15 min): 90.61%; Residual rate (%) 30 min ([3]; 30 min): 81.14%; Residual rate (%) 60 min ([3]; 60 min): 59.66%; Residual rate (%) 120 min ([3]; 120 min): 33.25%; half-life at 5 µM [4]: 82.7 min; Residual rate (%) 0 min ([4]; 0 min): 100.00%; Residual rate (%) 15 min ([4]; 15 min): 93.86%; Residual rate (%) 30 min ([4]; 30 min): 85.71%; Residual rate (%) 60 min ([4]; 60 min): 67.74%; Residual rate (%) 120 min ([4]; 120 min): 37.38%
C=CC(=O)Nc1cc(Nc2ncc(-c3ncco3)c(-c3cn(C)c4ccccc34)n2)c(OC)cc1N(C)CCN(C)C [Example 81, N-(2-((2-(Dimethylamino)ethyl)(methyl)amino)-4-methoxy-5-((4-(1-methyl-1H-indol-3-yl)-5-(oxazol-2-yl)pyrimidin-2-yl)amino)phenyl)acrylamide] | 22.9 | 66.8 | 17.23 | 82.77 | 334 ± 121 | 0.47 | –
C=CC(=O)Nc1cc(Nc2ncc(-c3ncco3)c(-c3cn(C4CC4)c4ccccc34)n2)c(OC)cc1N(C)CCN(C)C [Example 37, N-(5-((4-(1-Cyclopropyl-1H-indol-3-yl)-5-(oxazol-2-yl)pyrimidin-2-yl)amino)-2-((2-(dimethylamino)ethyl)(methyl)amino)-4-methoxyphenyl)acrylamide] | 16.6 | 66 | 25.75 | 74.25 | 499 ± 151 | 0.56 | –
C=CC(=O)Nc1cc(Nc2nccc(-c3cn(C)c4ccccc34)n2)c(OC)cc1N(C)CCN(C)C [ADZ9291] | – | – | 48.40 | 51.60 | 935 ± 176 | – | –
